Results as given in patent US20100056502A1, “COMPOUNDS” (GLAXO GROUP LIMITED, priority 2007, published 2010).
Counter-ions that a name gives are not always drawn.

Test system: Mycobacterium tuberculosis H37Rv
Test: Mycobacterium tuberculosis H37Rv Inhibition Assay
Format: cell-based
Details: ATCC 25618 / H37Rv, H37Rv strain (ATCC25618), resazurin fluorescence readout
Method: The measurement of the minimum inhibitory concentration (MIC) for each tested compound was performed in 96 wells flat-bottom, polystyrene microtiter plates. Ten two-fold drug dilutions in neat DMSO starting at 400 μM were performed. Five μl of these drug solutions were added to 95 μl of Middlebrook 7H9 medium. (Lines A-H, rows 1-10 of the plate layout). Isoniazid was used as a positive control, 8 two-fold dilution of Isoniazid starting at 160 μgml^−1 was prepared and 5 μl of this control curve was added to 95 μl of Middlebrook 7H9 (Difco catalogue Ref. 271310)+ADC medium (Becton Dickinson Catalogue Ref. 211887). (Row 11, lines A-H). Five μl of neat DMSO were added to row 12 (growth and Blank controls).
The inoculum was standardised to approximately 1×10^7 cfu/ml and diluted 1 in 100 in Middlebrook 7H9+ADC medium and 0.025% Tween 80 (Sigma P4780), to produce the final inoculum of H37Rv strain (ATCC25618). One hundred μl of this inoculum was added to the entire plate but G-12 and H-12 wells (Blank controls). All plates were placed in a sealed box to prevent drying out of the peripheral wells and they were incubated at 37° C. without shaking for six days. A resazurin solution was prepared by dissolving one tablet of resazurin (Resazurin Tablets for Milk Testing; Ref 330884Y VWR International Ltd) in 30 ml sterile PBS (phosphate buffered saline). 25 μl of this solution was added to each well. Fluorescence was measured (Spectramax M5 Molecular Devices, Excitation 530 nm, Emission 590 nm) after 48 hours to determine the MIC value.

Question: How did the MIC turn out when `O=C1COc2ccc(CNC3CCN(CC4CCn5c(=O)ccc6ccc(F)c4c65)CC3)nc2N1` (centres unmarked) [Example 11, 10-fluoro-1-[(4-{[(3-oxo-3,4-dihydro-2H-pyrido[3,2-b][1,4]oxazin-6-yl)methyl]amino}-1-piperidinyl)methyl]-2,3-dihydro-1H,5H-pyrido[3,2,1-ij]quinolin-5-one dihydrochloride] was run?
Answer: ≤ 1.8 µg/mL

Question: With `O=C1COc2ccc(CN[C@H]3CCN(CC4CCn5c(=O)ccc6ccc(F)c4c65)C[C@H]3O)nc2N1` (stereo partly drawn) [Example 17, 10-fluoro-1-[((3R,4S)-3-hydroxy-4-{[(3-oxo-3,4-dihydro-2H-pyrido[3,2-b][1,4]oxazin-6-yl)methyl]amino}-1-piperidinyl)methyl]-2,3-dihydro-1H,5H-pyrido[3,2,1-ij]quinolin-5-one dihydrochloride] as the compound, how does the MIC read?
Answer: ≤ 1.8 µg/mL

Question: With `O=C1CSc2ccc(CNC3CCN(CC4CCn5c(=O)ccc6ccc(F)c4c65)CC3)nc2N1` (centres unmarked) [Example 10, 10-fluoro-1-[(4-{[(3-oxo-3,4-dihydro-2H-pyrido[3,2-b][1,4]thiazin-6-yl)methyl]amino}-1-piperidinyl)methyl]-2,3-dihydro-1H,5H-pyrido[3,2,1-ij]quinolin-5-one dihydrochloride] as the compound, how does the MIC read?
Answer: ≤ 1.8 µg/mL

Question: How did the MIC turn out when `O=C1COc2ccc(CNC3CCN(CC4CCN5C(=O)COc6ccc(F)c4c65)CC3)nc2N1` (centres unmarked) [Example 37, 8-Fluoro-7-[(4-{[(3-oxo-3,4-dihydro-2H-pyrido[3,2-b][1,4]oxazin-6-yl)methyl]amino}-1-piperidinyl)methyl]-6,7-dihydro-5H-[1,4]oxazino [2,3,4-ij]quinolin-3(2H)-one dihydrochloride] was run?
Answer: ≤ 1.8 µg/mL

Question: How did the MIC turn out when `O=C1COc2ccc(CNC3CCN(CC4CCn5c(=O)sc6ccc(F)c4c65)CC3)nc2N1` (centres unmarked) [Example 32, 7-Fluoro-6-[(4-{[(3-oxo-3,4-dihydro-2H-pyrido[3,2-b][1,4]oxazin-6-yl)methyl]amino}-1-piperidinyl)methyl]-5,6-dihydro-4H-[1,3]thiazolo[5,4,3-ij]quinolin-2-one dihydrochloride] was run?
Answer: ≤ 1.8 µg/mL
